Measurements reported in BindingDB's records for doi:10.1146/annurev.pa.30.040190.003221 (National Institute For Medical Research, 1990).

Legend:
[1] = molecular target: T1, Muscarinic acetylcholine receptor M2 (Rattus norvegicus, UniProt P10980)
T1 sequence (P10980 whole entry): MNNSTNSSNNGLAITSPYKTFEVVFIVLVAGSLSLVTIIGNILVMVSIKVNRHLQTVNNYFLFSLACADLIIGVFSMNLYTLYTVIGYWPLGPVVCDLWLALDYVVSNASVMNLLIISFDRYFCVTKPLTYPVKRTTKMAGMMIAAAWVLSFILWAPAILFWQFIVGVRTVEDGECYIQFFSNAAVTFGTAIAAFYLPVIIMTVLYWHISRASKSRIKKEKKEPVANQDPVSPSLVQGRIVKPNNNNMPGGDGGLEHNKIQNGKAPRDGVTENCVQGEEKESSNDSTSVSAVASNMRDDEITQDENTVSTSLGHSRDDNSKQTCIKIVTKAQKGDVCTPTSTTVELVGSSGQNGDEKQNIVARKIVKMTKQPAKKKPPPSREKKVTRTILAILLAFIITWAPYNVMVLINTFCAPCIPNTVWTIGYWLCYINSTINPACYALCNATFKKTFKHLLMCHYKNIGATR

[2] = molecular target: T2, Muscarinic acetylcholine receptor M1 (Rattus norvegicus, UniProt P08482)
T2 sequence (P08482 whole entry): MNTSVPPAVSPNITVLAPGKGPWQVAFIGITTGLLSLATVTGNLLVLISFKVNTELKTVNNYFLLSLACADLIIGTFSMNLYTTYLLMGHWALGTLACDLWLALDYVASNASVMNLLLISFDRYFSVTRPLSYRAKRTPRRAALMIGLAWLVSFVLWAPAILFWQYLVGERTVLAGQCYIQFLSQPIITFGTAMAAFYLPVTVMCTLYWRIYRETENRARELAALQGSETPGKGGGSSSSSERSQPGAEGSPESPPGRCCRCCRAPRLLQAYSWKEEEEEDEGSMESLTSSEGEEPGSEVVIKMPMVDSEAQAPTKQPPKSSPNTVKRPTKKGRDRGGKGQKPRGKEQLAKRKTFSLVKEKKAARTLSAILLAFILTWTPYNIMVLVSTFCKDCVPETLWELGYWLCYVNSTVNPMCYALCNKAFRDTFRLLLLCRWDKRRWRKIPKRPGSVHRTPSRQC

[3] = molecular target: Muscarinic acetylcholine receptor M3 (Rattus norvegicus, UniProt P08483)
Chain of Muscarinic acetylcholine receptor M3 (P08483 whole entry): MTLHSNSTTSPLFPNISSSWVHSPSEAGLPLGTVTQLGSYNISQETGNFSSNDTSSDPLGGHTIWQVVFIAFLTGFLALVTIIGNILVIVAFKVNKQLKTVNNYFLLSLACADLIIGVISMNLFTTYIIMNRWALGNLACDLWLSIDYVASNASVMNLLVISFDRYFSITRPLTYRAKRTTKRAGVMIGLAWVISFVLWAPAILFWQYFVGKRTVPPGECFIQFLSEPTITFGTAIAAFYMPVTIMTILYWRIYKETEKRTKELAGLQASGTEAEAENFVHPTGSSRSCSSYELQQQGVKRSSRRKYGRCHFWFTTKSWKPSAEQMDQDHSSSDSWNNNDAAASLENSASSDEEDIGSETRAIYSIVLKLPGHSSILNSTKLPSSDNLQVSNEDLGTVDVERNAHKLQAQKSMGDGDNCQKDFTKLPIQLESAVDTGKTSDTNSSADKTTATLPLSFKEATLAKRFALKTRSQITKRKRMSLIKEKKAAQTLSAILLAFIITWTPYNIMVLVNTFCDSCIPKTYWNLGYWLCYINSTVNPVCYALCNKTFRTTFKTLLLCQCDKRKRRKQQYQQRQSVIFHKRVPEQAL

SMILES	Ki [1]	Ki [2]	Ki [3]
C[C@H]1OC(=O)C2C[C@H]3CCCC[C@@H]3[C@@H](/C=C/[C@@H]3CCC[C@H](C)N3C)C21 (some centres undefined) [HIMBACINE]	7.94 nM	100 nM	126 nM
CCN(CC)CC1CCCCN1CC(=O)N1c2ccccc2C(=O)Nc2cccnc21 (centres undefined) [(AF-DX 116) 11-[2-(2-Diethylaminomethyl-piperidin-1-yl)-acetyl]-5,11-dihydro-benzo[e]pyrido[3,2-b][1,4]diazepin-6-one]		398 nM	1260 nM
COc1ccccc1CNCCCCCCNCCCCCCCCNCCCCCCNCc1ccccc1OC [METHOCTRAMINE]			316 nM
CC(=O)N[C@H]1CO[C@H](COS(=O)(=O)O)[C@@H](O[C@@H]2O[C@H](C(=O)O)[C@@H](O[C@H]3O[C@H](CO)[C@@H](O[C@@H]4O[C@@H](C(=O)O)[C@@H](O)[C@H](O)[C@H]4OS(=O)(=O)O)[C@H](OS(=O)(=O)O)[C@H]3NS(=O)(=O)O)[C@H](O)[C@H]2OS(=O)(=O)O)[C@@H]1O [CAS_9050-30-0]	126 nM	12.6 nM	6.31 nM
